{
  "source": "patent US7741040B2",
  "about": "“Methods and compositions for detecting cancers” (Case Western Reserve University, priority 2002, dated 2010)",
  "system": "SLC5A8 silenced colon cancer cell lines",
  "assay": "RT-PCR detection of SLC5A8 transcript after 5-azacytidine treatment",
  "type": "cell-based, human",
  "details": "5-azacytidine 1.5 μg/ml, 24 h on day 2 and day 5",
  "protocol": "Amplification and Sequencing of SLC5A8. The primers used for RT-PCR assay of a SLC5A8 fragment are 5′-TCCGAGGTCTACCGTTTTG-3′, and 5′-GGGCA GGGGC ATAAA TAAC-3′. The PCR parameters were 35 cycles of 95° C. (45s), 54° C. (45s), 72° C. (60s), 72° C. (10 min), and 4° C. to cool. The full length SLC5A8 ORF was amplified using primers: 5′TCCGGGATAAGAAGTGCG-3′ and 5′-[…]-3′. GC-rich cDNA polymerase kit (Clonetech) was used and PCR parameters were 35 cycles of 95° C. (45s), 62° C. (45s), 72° C. (90s), 72° C. (10 min), and 4° C. to cool. Sequencing primers were: 5′-TTTGT GGTGGTCA TCAGCG-3′,5′-GGGCAGGGGCATAAATAAC-3′,5′-AGGCTGTG GTGATGCAAGGT-3′,5′-TTAATGCCTTAGCAGCAG-3′, and 5′-CCTCCACTT CCTGAGAGAAC-3′.\n5-Azacytidine Treatment. The treatment was performed as described previously (Veigl et al., 1998, Proc Natl Acad Sci USA 95: 8698-8702). Briefly, cells were treated for 24 h on day 2 and day 5 with 5-azacytidine (Sigma) at 1.5 μg/ml. The medium was changed 24 h after addition of the 5-azacytidine (i.e., on day 3 and day 6).",
  "data": [
    {"smiles": "Nc1ncn([C@@H]2O[C@H](CO)[C@@H](O)[C@H]2O)c(=O)n1", "note": "[5-azacytidine]", "values": [
      {"measurement": "reactivation of SLC5A8 expression (cell lines reactivated of cell lines tested)", "value": "6 of 8"}
    ]}
  ]
}
